Results: patent US6770778B2, “N-(4-substituted phenyl)-anthranilic acid hydroxamate esters” (Pfizer Inc, priority 2002, dated 2004)

Experiments:
[1] = system: MEK; experiment: Cellular assay for measuring MEK inhibition (inhibition of ERK phosphorylation in C26 cells); format: cell-based; settings: murine colon 26 (C26) carcinoma cells, 1 hour at 37° C., Western blot of dually phosphorylated ERK1 and ERK2
Description: The evaluation of the compounds as MEK inhibitors is performed in an assay that measures their ability to inhibit phosphorylation of MAP kinase (ERK) in murine colon 26 (C26) carcinoma cells. Since ERK1 and ERK2 represent the only known substrates for MEK, measurement of inhibition of ERK phosphorylation in cells provides direct readout of cellular MEK inhibition by the compounds of the invention. Briefly, the assay involves treating exponentially growing C26 cells with varying concentrations of the test compound (or vehicle control) for 1 hour at 37° C. Cells are then rinsed free of compound/vehicle and lysed in a solution containing 70 mM NaCl, 50 mM glycerol phosphate, 10 mM HEPES, pH 7.4, 1% Triton X-100, 1 mM Na3VO4, 100 μM PMSF, 10 μM leupeptin, and 10 μM pepstatin. Supernatants are then subjected to gel electrophoresis and Western blotting using a primary antibody recognizing dually phosphorylated ERK1 and ERK2. To evaluate total MAPK levels, blots were subsequently ‘stripped’ and re-probed with a 1:1 mixture of polyclonal antibodies recognizing unphosphorylated ERK1 and ERK2.
The inhibition data generated by the above protocol is disclosed in Table 1. If several concentrations of inhibitor were tested, IC50 values (the concentration which gives 50% inhibition) were determined graphically from the dose response curve for % inhibition. Otherwise, percent inhibitions at measured concentrations are reported.

| SMILES | IC50 [1] [nM] | melting point [°C] |
| --- | --- | --- |
| COCC#Cc1ccc(Nc2c(C(=O)NOCCO)ccc(F)c2F)c(F)c1 [Example 5, 3,4-Difluoro-2-[[2-fluoro-4-(3-methoxy-1-propynyl)phenyl]amino]-N-(2-hydroxyethoxy)benzamide] | > 1000 | 121 to 123 |
| O=C(O)c1ccc(Nc2c(C(=O)NOCCO)ccc(F)c2F)cc1 [Example 2, 4-[[2,3-Difluoro-6-[[(2-hydroxyethoxy)amino]carbonyl]phenyl]amino]-benzoic acid] | 73 | 180 to 183 |
| COC(=O)c1ccc(Nc2c(C(=O)NOCCO)ccc(F)c2F)c(F)c1 [Example 3, Methyl 4-(2,3-difluoro-6-{[(2-hydroxyethoxy)amino]carbonyl}anilino)-3-fluorobenzoate] | 27 | 162 to 165 |
| CNC(=O)c1ccc(Nc2c(C(=O)NOCCO)ccc(F)c2F)c(F)c1 [Example 7, 2-{2-fluoro-4-[(methylamino)carbonyl]anilino}-3,4-difluoro-N-(2-hydroxyethoxy)benzamide] | > 10000 | 197 to 200 |
| O=C(O)c1ccc(Nc2c(C(=O)NOCCO)ccc(F)c2F)c(F)c1 [Example 4, 4-(2,3-Difluoro-6-{[(2-hydroxyethoxy)amino]carbonyl}anilino)-3-fluorobenzoic acid] | > 1000 | 196 to 200 |
| COC(=O)c1ccc(Nc2c(C(=O)NOCCO)ccc(F)c2F)cc1 [Example 1, Methyl 4-[[2.3-difluoro-6-[[(2-hydroxyethoxy)amino]carbonyl]phenyl]-amino]benzoate] | > 1000 | 158 to 160 |
| CC(=O)c1ccc(Nc2c(C(=O)NOCCO)ccc(F)c2F)c(Cl)c1 [Example 6, 2-(4-Acetyl-2-chloro-phenylamino)-3,4-difluoro-N-(2-hydroxy-ethoxy)-benzamide] | – | 161.5 to 162.5 |
